Where two headings read alike, the source gives them in different places.
Key:
Assay type in all cases: cell-based, human
HMC-1.1 cells [1] = experiment: 3H-thymidine incorporation assay; settings: for IC50: Homo sapiens, read-out: 3H-thymidine uptake (IC50) HMC-1.1; for cell growth / proliferation (in words): HMC-1.1
Procedure: (§1) The human mast cell line HMC-1 generated from leukemic cells in a patient with MCL48 are obtained (Mayo Clinic, Rochester, Minn.). […] HMC-1 cells are re-thawed from an original stock every 4 to 8 weeks and passaged weekly. As control of ‘phenotypic stability’, HMC-1 cells are periodically checked for expression of KIT and the down-modulating effect of IL-4 (100 U/ml, 48 hours).
(§2) In a separate set of experiments, HMC-1 cells are transfected with mcl-1-specific ASO before being exposed to inhibitory drugs (see below). […] After exposure to drugs or/and ASO, cells are subjected to ^3H-thymidine uptake experiments, analysis of cell viability and apoptosis, or Western blotting.
(§3) Thereafter, 1 μCi ^3H-thymidine is added to each well. […] Filters are then air-dried, and the bound radioactivity is measured in a β-counter (Top-Count NXT, Packard Bioscience). All experiments are performed in triplicates. Cell viability is determined by the trypan blue exclusion test. The percentage of apoptotic cells is determined on Wright-Giemsa-stained cytospin slides employing conventional cytomorphologic criteria.

HMC-1.2 cells [2] = experiment: 3H-thymidine incorporation assay; settings: for IC50: Homo sapiens, read-out: 3H-thymidine uptake (IC50) HMC-1.2
Procedure: as §1, §2, §3

HMC-1.1 cells [3] = experiment: induction of apoptosis (percentage of apoptotic cells on Wright-Giemsa-stained cytospin slides); settings: for EC50: Homo sapiens, incubated with drugs for 24 hours
Procedure: (§4) Scramble control represents a mixture of A (adenine), G (guanine), T (thymine), and C (cytosine) bases, the resulting preparation containing an equimolar mixture of oligonucleotides. […] For transfection, 800,000 cells are seeded in 75 cm^2 culture plates at 37° C. for 24 hours. Mcl-1-ASO and Mcl-1 siRNA are complexed with Lipofectin-Reagent (Invitrogen) in RPMI 1640 medium essentially as described. […] After exposure to ASO, cells are washed and cultured in RPMI 1640 medium with 10% FCS in the presence or absence of various concentrations of TK inhibitors for another 12 hours before being analyzed. siRNA-treated cells are kept in control medium for 12 hours (without TK inhibitors) before being examined for the percentage of apoptotic cells and Western blotting.
(§5) Thereafter, 1 μCi ^3H-thymidine is added to each well. Sixteen hours later, cells are harvested on filter membranes (Packard Bioscience, Meriden, Conn.) in a Filtermate 196 harvester (Packard Bioscience). Filters are then air-dried, and the bound radioactivity is measured in a β-counter (Top-Count NXT, Packard Bioscience). All experiments are performed in triplicates. Cell viability is determined by the trypan blue exclusion test. The percentage of apoptotic cells is determined on Wright-Giemsa-stained cytospin slides employing conventional cytomorphologic criteria.
(§6) METHOD: Effects of mcl-1 antisense oligonucleotides on Mcl-1 protein expression and cell viability in HMC-1.1 and HMC-1.2 cells are analyzed. […] Western Blot analysis of Mcl-1 expression is performed using an anti-Mcl-1 antibody. β-Actin served as loading control. Evaluation of non-viable (trypan blue-positive) cells is expressed as percentage of all nucleated cells. Numbers (%) of apoptotic cells. Results represent the mean±S.D. from 3 independent experiments.
(§7) METHOD: [001] Effects of mcl-1-siRNA are analyzed in neoplastic mast cells on expression of Mcl-1 protein and cell viability in HMC-1.1 cells and HMC-1.2 cells. Cells are left untransfected (Control) or are transfected with either an mcl-1-specific siRNA (mcl-1-siRNA; 200 nM) or a luciferase-specific (control)-siRNA (luc-siRNA; 200 nM) as described herein. Mcl-1 protein expression is determined by Western blotting using a polyclonal anti-Mcl -1 antibody. Equal loading is confirmed by probing for β-Actin. Cell viability is analyzed by recording the percentage (%) of apoptotic cells. Results represent the mean±S.D. from 3 independent experiments in each set of experiments.
(§8) Mcl-1 protein expression is determined by Western blotting using a polyclonal anti-Mcl-1 antibody. Equal loading is confirmed by probing for β-Actin. Cell viability is analyzed by recording the percentage (%) of apoptotic cells.

HMC-1.2 cells [4] = experiment: as above; settings: for EC50: Homo sapiens, incubated with drugs for 24 hours
Procedure: as §4, §5, §6, §7, §8

Mcl-1 protein [5] = experiment: Western blot analysis of Mcl-1 protein expression in HMC-1.1 cells; settings: for expression of the Mcl-1 protein after targeted drugs: HMC-1.1 lacking KIT D816V, PKC412 0.3-10 μM, nilotinib 10-300 nM, imatinib 30-300 nM, 2CdA up to 1,000 ng/ml
Procedure: (§9) Western blot analysis is performed as described previously using lysates of HMC-1 cells and a polyclonal rabbit anti-human Mcl-1 antibody (Santa Cruz Biotechnology, Santa Cruz, Calif.). In brief, cells are lysed in phosphate buffered saline (PBS) containing 1% Triton-X-100 (Sigma, St. Louis, Mo.). Proteins are separated under reducing conditions by SDS-polyacrylamide gel electrophoresis and transferred to nitrocellulose membranes (Protran, Schleicher & Schuell, Dassel, Germany) in transfer buffer. Membranes are then exposed to anti-mouse/anti-rabbit IgG (BM Chemiluminescence Western blotting Kit, Roche). […] Chemiluminescence is detected by exposure to a Biomax MS film (Kodak).
as §6, §7, §8

Mcl-1 protein [6] = experiment: Western blot analysis of Mcl-1 protein expression in HMC-1.2 cells; settings: for expression of the Mcl-1 protein after targeted drugs: HMC-1.2 exhibiting KIT D816V, PKC412 1-10 μM, 2CdA 10-100 ng/ml, nilotinib and imatinib over the dose range tested
Procedure: as §9, §6, §7, §8

HMC-1.1 cells [7] = experiment: combination of mcl-1 ASO and targeted drugs, combination index (CalcuSyn); settings: drug combined with mcl-1 ASO
Procedure: To determine the level of significance in differences found in the evaluation of data, the paired student t-test is applied.
Results are expressed as percent of control (=scramble control) without targeted drug and represent the mean±SD of 3 independent experiments are analyzed. […] Results represent the mean±SD of 3 independent experiments. […] A combination index (CI) less than 1 indicates synergism.

[8] = 24 hours of incubation with drug

Nc1nc(Cl)nc2c1ncn2[C@H]1C[C@H](O)[C@@H](CO)O1 [2CdA, 2-chlorodeoxyadenosine]
IC50 (HMC-1.1 cells [1]; [8]): 0.1 to 0.3 µg/mL
IC50 (HMC-1.2 cells [2]; [8]): 0.005 to 0.02 µg/mL
induction of apoptosis (in words) (HMC-1.1 cells [3]; HMC-1.1): no significant effect
EC50 (HMC-1.1 cells [3]): > 1 µg/mL
EC50 (HMC-1.2 cells [4]): > 1 µg/mL

Cc1ccc(NC(=O)c2ccc(CN3CCN(C)CC3)cc2)cc1Nc1nccc(-c2cccnc2)n1 [Imatinib]
induction of apoptosis (in words) (HMC-1.1 cells [3]; HMC-1.1): induce apoptosis
expression of the Mcl-1 protein after targeted drugs (Mcl-1 protein [5]): down-regulate expression
expression of the Mcl-1 protein after targeted drugs (Mcl-1 protein [6]): no significant effects

CO[C@@H]1[C@H](N(C)C(=O)c2ccccc2)C[C@H]2O[C@]1(C)n1c3ccccc3c3c4c(c5c6ccccc6n2c5c31)C(=O)NC4 [PKC412, N-[(9S,10R,11R,13R)-2,3,10,11,12,13-hexahydro-10-methoxy-9-methyl-1-oxo-9,13-epoxy-1H,9H-diindolo[1,2,3-gh:3′,2′,1′-lm]pyrrolo[3,4-j][1,7]benzodiazonin-11-yl]-N-methylbenzamide]
cell growth / proliferation (in words) (HMC-1.1 cells [1]): reduce cell growth
cell growth / proliferation (in words) (HMC-1.2 cells [2]; HMC-1.2, pharmacologically relevant concentrations): counteract cell growth
induction of apoptosis (in words) (HMC-1.1 cells [3]; HMC-1.1): induce apoptosis
expression of the Mcl-1 protein after targeted drugs (Mcl-1 protein [5]): down-regulate expression
expression of the Mcl-1 protein after targeted drugs (Mcl-1 protein [6]): decreased the expression

Cc1cn(-c2cc(NC(=O)c3ccc(C)c(Nc4nccc(-c5cccnc5)n4)c3)cc(C(F)(F)F)c2)cn1 [nilotinib, 4-methyl-3-[[4-(3-pyridinyl)-2-pyrimidinyl]amino]-N-[5-(4-methyl-1H-imidazol-1-yl)-3-(trifluoromethyl)phenyl]benzamide]
cell growth / proliferation (in words) (HMC-1.1 cells [1]): reduce cell growth
IC50 (HMC-1.1 cells [1]; 24 hours of incubation with drugs or transfection with ASO): 3 to 10 nM
IC50 (HMC-1.2 cells [2]; 24 hours of incubation with drugs): 1000 to 3000 nM
induction of apoptosis (in words) (HMC-1.1 cells [3]; HMC-1.1): induce apoptosis
EC50 (HMC-1.1 cells [3]): 30 to 80 nM
EC50 (HMC-1.2 cells [4]): > 10000 nM
expression of the Mcl-1 protein after targeted drugs (Mcl-1 protein [5]): down-regulate expression
expression of the Mcl-1 protein after targeted drugs (Mcl-1 protein [6]): no significant effects
drug interaction with mcl-1 ASO (synergism, combination index less than 1) (HMC-1.1 cells [7]): only synergistic in HMC-1.1 cells

mcl-1 siRNA: double-stranded mcl-1 siRNA (AAGAAACGCGGUAAUCGGACU, SEQ ID NO:8, and AGUCCGAUUACCGCGUUUCUU, SEQ ID NO:9) (chain 1 AAGAAACGCGGUAAUCGGACU; chain 2 AGUCCGAUUACCGCGUUUCUU; listed as RNA, chemistry not given here; listed as Homo sapiens)
apoptotic cells (HMC-1.1 cells [3]; HMC-1.1, siRNA 200 nM, 12 hours): increase in apoptotic cells
apoptotic cells (HMC-1.2 cells [4]; HMC-1.2, siRNA 200 nM, 12 hours): increase in apoptotic cells
expression of the Mcl-1 protein (Mcl-1 protein [5]; HMC-1.1, siRNA 200 nM): downregulate expression
expression of the Mcl-1 protein (Mcl-1 protein [6]; HMC-1.2, siRNA 200 nM): downregulate expression
